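96-well plates; 48 h exposure; 5 concentrations. Endpoints by linear interpolation between flanking doses. Not reached: highest tested concentration assigned. GI50: concentration for 50% inhibition of growth.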 Activity calls are given as the source filed them. Cut-off read from the data, not from the text of the source: active = GI50 up to about 1.1 µM and inactive = higher.
What was measured:
Assay in all cases: inhibition of tumour cell growth, NCI panel, 48 h
SNB-19 = system: SNB-19
MOLT-4 = system: MOLT-4
COLO 205 = system: COLO 205
DLD-1 = system: DLD-1
CAKI-1 = system: CAKI-1
786-0 = system: 786-0
HCC 2998 = system: HCC 2998
LXFL 529 = system: LXFL 529
SF-539 = system: SF-539
OVCAR-4 = system: OVCAR-4
IGROV-1 = system: IGROV-1
SF-295 = system: SF-295
U-251 = system: U-251
HOP-92 = system: HOP-92
HOP-62 = system: HOP-62
HT-29 = system: HT-29
SF-268 = system: SF-268
UACC-62 = system: UACC-62
SK-MEL-2 = system: SK-MEL-2
DMS-273 = system: DMS-273
SW-620 = system: SW-620
SR = system: SR
UO-31 = system: UO-31
M14 = system: M14
TK-10 = system: TK-10
SNB-75 = system: SNB-75
NCI-H226 = system: NCI-H226
DMS-114 = system: DMS-114
OVCAR-5 = system: OVCAR-5
A549 = system: A549
M19-MEL = system: M19-MEL
OVCAR-8 = system: OVCAR-8
OVCAR-3 = system: OVCAR-3
NCI-H23 = system: NCI-H23
NCI-H522 = system: NCI-H522
KM-20L2 = system: KM-20L2
HL-60 = system: HL-60
K562 = system: K562
SK-MEL-28 = system: SK-MEL-28
NCI-H460 = system: NCI-H460
ACHN = system: ACHN
HCT-116 = system: HCT-116
SK-MEL-5 = system: SK-MEL-5
UACC-257 = system: UACC-257
KM12 = system: KM12
RPMI-8226 = system: RPMI-8226
Malme-3M = system: Malme-3M
CCRF-CEM = system: CCRF-CEM
EKVX = system: EKVX
HCT-15 = system: HCT-15
LOX IMVI = system: LOX IMVI
SNB-78 = system: SNB-78
SN12C = system: SN12C
MCF7 = system: MCF7
PC-3 = system: PC-3
BT-549 = system: BT-549
A498 = system: A498
MDA-MB-435 = system: MDA-MB-435
T47D = system: T47D
SK-OV-3 = system: SK-OV-3
MDA-MB-231 = system: MDA-MB-231
MDA-N = system: MDA-N
DU-145 = system: DU-145
Hs-578T = system: Hs-578T
NCI/ADR-RES = system: NCI/ADR-RES
RXF 393 = system: RXF 393

For Nc1nc(CCl)nc(Nc2ccccc2)n1, the GI50 (SNB-19) was 46.6 µM (inactive), the GI50 (MOLT-4) was 15.8 µM (inactive) and the GI50 (COLO 205) was 21.8 µM (inactive). For the same compound, the GI50 (DLD-1) was 36.9 µM (inactive), the GI50 (CAKI-1) was 12.4 µM (inactive) and the GI50 (786-0) was 2 µM (inactive). For the same compound, the GI50 (HCC 2998) was 17.4 µM (inactive), the GI50 (LXFL 529) was 14.8 µM (inactive) and the GI50 (SF-539) was 25 µM (inactive). For the same compound, the GI50 (OVCAR-4) was 17.4 µM (inactive), the GI50 (IGROV-1) was 16.6 µM (inactive) and the GI50 (SF-295) was 23.8 µM (inactive). The GI50 (U-251) was 3.99 µM (inactive), the GI50 (HOP-92) was 18.2 µM (inactive) and the GI50 (HOP-62) was 16.3 µM (inactive). For the same compound, the GI50 (HT-29) was 12.5 µM (inactive), the GI50 (SF-268) was 19.2 µM (inactive) and the GI50 (UACC-62) was 19 µM (inactive). For the same compound, the GI50 (SK-MEL-2) was 18.8 µM (inactive), the GI50 (DMS-273) was 4.16 µM (inactive) and the GI50 (SW-620) was 21.3 µM (inactive). For the same compound, the GI50 (SR) was 12.9 µM (inactive), the GI50 (UO-31) was 28.5 µM (inactive) and the GI50 (M14) was 16.9 µM (inactive). For the same compound, the GI50 (TK-10) was 24 µM (inactive), the GI50 (SNB-75) was 6.24 µM (inactive) and the GI50 (NCI-H226) was 26.2 µM (inactive). For the same compound, the GI50 (DMS-114) was 18.4 µM (inactive), the GI50 (OVCAR-5) was 19.9 µM (inactive) and the GI50 (A549) was 26.2 µM (inactive). For the same compound, the GI50 (M19-MEL) was 29.4 µM (inactive), the GI50 (OVCAR-8) was 30.2 µM (inactive) and the GI50 (OVCAR-3) was 17.2 µM (inactive). For the same compound, the GI50 (NCI-H23) was 18.6 µM (inactive), the GI50 (NCI-H522) was 1.75 µM (inactive) and the GI50 (KM-20L2) was 18.6 µM (inactive). The GI50 (HL-60) was 3.27 µM (inactive), the GI50 (K562) was > 10 µM (inactive) and the GI50 (SK-MEL-28) was 15.8 µM (inactive). The GI50 (NCI-H460) was 17.3 µM (inactive), the GI50 (ACHN) was 27 µM (inactive) and the GI50 (HCT-116) was 19.5 µM (inactive). For the same compound, the GI50 (SK-MEL-5) was 17.5 µM (inactive), the GI50 (UACC-257) was 15.9 µM (inactive) and the GI50 (KM12) was 15.1 µM (inactive). The GI50 (RPMI-8226) was 4.1 µM (inactive), the GI50 (Malme-3M) was 17.4 µM (inactive) and the GI50 (CCRF-CEM) was 2.14 µM (inactive).
In the case of CCNC(=O)c1ccc(C)c(/N=N/N(C)C)c1, the GI50 (SNB-19) was > 100 µM (inactive), the GI50 (EKVX) was > 100 µM (inactive) and the GI50 (DLD-1) was > 100 µM (inactive). For the same compound, the GI50 (CAKI-1) was > 100 µM (inactive), the GI50 (HCT-15) was greater than 100 µM and the GI50 (786-0) was > 100 µM (inactive). For the same compound, the GI50 (HCC 2998) was > 100 µM (inactive), the GI50 (LOX IMVI) was > 100 µM (inactive) and the GI50 (LXFL 529) was > 100 µM (inactive). For the same compound, the GI50 (SF-539) was > 100 µM (inactive), the GI50 (OVCAR-4) was > 100 µM (inactive) and the GI50 (IGROV-1) was > 100 µM (inactive). For the same compound, the GI50 (SF-295) was > 100 µM (inactive), the GI50 (U-251) was > 100 µM (inactive) and the GI50 (HOP-92) was > 100 µM (inactive). The GI50 (HOP-62) was > 100 µM (inactive), the GI50 (HT-29) was > 100 µM (inactive) and the GI50 (SNB-78) was > 100 µM (inactive). For the same compound, the GI50 (SF-268) was 77.1 µM (inactive), the GI50 (UACC-62) was > 100 µM (inactive) and the GI50 (SK-MEL-2) was > 100 µM (inactive). For the same compound, the GI50 (DMS-273) was > 100 µM (inactive), the GI50 (SW-620) was > 100 µM (inactive) and the GI50 (SN12C) was > 100 µM (inactive). For the same compound, the GI50 (UO-31) was > 100 µM (inactive), the GI50 (M14) was > 100 µM (inactive) and the GI50 (TK-10) was > 100 µM (inactive). The GI50 (A549) was > 100 µM (inactive), the GI50 (M19-MEL) was > 100 µM (inactive) and the GI50 (OVCAR-8) was > 100 µM (inactive). The GI50 (OVCAR-3) was > 100 µM (inactive), the GI50 (NCI-H23) was > 100 µM (inactive) and the GI50 (NCI-H522) was 81.1 µM (inactive). The GI50 (KM-20L2) was > 100 µM (inactive), the GI50 (SK-MEL-28) was > 100 µM (inactive) and the GI50 (NCI-H460) was > 100 µM (inactive). The GI50 (ACHN) was > 100 µM (inactive), the GI50 (HCT-116) was > 100 µM (inactive) and the GI50 (SK-MEL-5) was > 100 µM (inactive). The GI50 (UACC-257) was > 100 µM (inactive) and the GI50 (KM12) was > 100 µM (inactive).
With CC1CCC2N(C1)CC1C3(O)CC45OC6(O)C(O)CCC4(C)C6CCC5C3(O)CC(O)C1(O)C2(C)O (stereo not drawn) the GI50 (SNB-19) was > 100 µM (inactive), the GI50 (MOLT-4) was > 100 µM (inactive) and the GI50 (MCF7) was > 100 µM (inactive). For the same compound, the GI50 (EKVX) was > 100 µM (inactive), the GI50 (COLO 205) was > 100 µM (inactive) and the GI50 (CAKI-1) was > 100 µM (inactive). For the same compound, the GI50 (HCT-15) was greater than 100 µM, the GI50 (786-0) was > 100 µM (inactive) and the GI50 (HCC 2998) was > 100 µM (inactive). For the same compound, the GI50 (LOX IMVI) was > 100 µM (inactive), the GI50 (SF-539) was > 100 µM (inactive) and the GI50 (OVCAR-4) was > 100 µM (inactive). For the same compound, the GI50 (IGROV-1) was > 100 µM (inactive), the GI50 (PC-3) was > 100 µM (inactive) and the GI50 (SF-295) was > 100 µM (inactive). For the same compound, the GI50 (U-251) was > 100 µM (inactive), the GI50 (HOP-92) was > 100 µM (inactive) and the GI50 (HOP-62) was > 100 µM (inactive). The GI50 (HT-29) was > 100 µM (inactive), the GI50 (BT-549) was > 100 µM (inactive) and the GI50 (SF-268) was > 100 µM (inactive). For the same compound, the GI50 (UACC-62) was > 100 µM (inactive), the GI50 (SK-MEL-2) was > 100 µM (inactive) and the GI50 (A498) was > 77.6 µM (inactive). For the same compound, the GI50 (SW-620) was > 100 µM (inactive), the GI50 (MDA-MB-435) was > 100 µM (inactive) and the GI50 (SR) was > 100 µM (inactive). For the same compound, the GI50 (SN12C) was > 100 µM (inactive), the GI50 (T47D) was > 100 µM (inactive) and the GI50 (UO-31) was > 100 µM (inactive). For the same compound, the GI50 (M14) was > 100 µM (inactive), the GI50 (TK-10) was > 100 µM (inactive) and the GI50 (SK-OV-3) was > 100 µM (inactive). The GI50 (MDA-MB-231) was > 100 µM (inactive), the GI50 (SNB-75) was > 100 µM (inactive) and the GI50 (NCI-H226) was > 100 µM (inactive). For the same compound, the GI50 (MDA-N) was > 100 µM (inactive), the GI50 (OVCAR-5) was > 100 µM (inactive) and the GI50 (A549) was > 100 µM (inactive). The GI50 (DU-145) was > 100 µM (inactive), the GI50 (OVCAR-8) was > 100 µM (inactive) and the GI50 (OVCAR-3) was > 100 µM (inactive). For the same compound, the GI50 (Hs-578T) was > 100 µM (inactive), the GI50 (NCI-H23) was > 100 µM (inactive) and the GI50 (NCI-H522) was > 100 µM (inactive). The GI50 (HL-60) was > 100 µM (inactive), the GI50 (K562) was > 100 µM (inactive) and the GI50 (SK-MEL-28) was > 100 µM (inactive). For the same compound, the GI50 (NCI-H460) was > 100 µM (inactive), the GI50 (ACHN) was > 100 µM (inactive) and the GI50 (HCT-116) was > 100 µM (inactive). For the same compound, the GI50 (SK-MEL-5) was > 100 µM (inactive), the GI50 (NCI/ADR-RES) was > 100 µM (inactive) and the GI50 (UACC-257) was > 100 µM (inactive). For the same compound, the GI50 (KM12) was > 100 µM (inactive), the GI50 (RXF 393) was > 100 µM (inactive) and the GI50 (RPMI-8226) was > 100 µM (inactive). The GI50 (Malme-3M) was > 100 µM (inactive) and the GI50 (CCRF-CEM) was > 100 µM (inactive).

Reference: ChEMBL document CHEMBL1201862, “PubChem BioAssay data set” (2004)
